Experimental data from patent publication US6395780B1, “Cleavage system inhibitors as potential antipsychotics” (Merck Patent GmbH, priority 1999, dated 2002).
Entries after “also recorded” stand apart in the source; their conditions may differ. Where two headings read alike, the source gives them in different places.

How the values were obtained:
[1] = molecular target: T1, Glycine Cleavage System (GCS) (Homo sapiens, UniProt P09622+P23378+P23434+P48728); details: liver mitochondria; read-out: Ki for GCS inhibition; cited from earlier work
T1 sequence (P23378 36-1020): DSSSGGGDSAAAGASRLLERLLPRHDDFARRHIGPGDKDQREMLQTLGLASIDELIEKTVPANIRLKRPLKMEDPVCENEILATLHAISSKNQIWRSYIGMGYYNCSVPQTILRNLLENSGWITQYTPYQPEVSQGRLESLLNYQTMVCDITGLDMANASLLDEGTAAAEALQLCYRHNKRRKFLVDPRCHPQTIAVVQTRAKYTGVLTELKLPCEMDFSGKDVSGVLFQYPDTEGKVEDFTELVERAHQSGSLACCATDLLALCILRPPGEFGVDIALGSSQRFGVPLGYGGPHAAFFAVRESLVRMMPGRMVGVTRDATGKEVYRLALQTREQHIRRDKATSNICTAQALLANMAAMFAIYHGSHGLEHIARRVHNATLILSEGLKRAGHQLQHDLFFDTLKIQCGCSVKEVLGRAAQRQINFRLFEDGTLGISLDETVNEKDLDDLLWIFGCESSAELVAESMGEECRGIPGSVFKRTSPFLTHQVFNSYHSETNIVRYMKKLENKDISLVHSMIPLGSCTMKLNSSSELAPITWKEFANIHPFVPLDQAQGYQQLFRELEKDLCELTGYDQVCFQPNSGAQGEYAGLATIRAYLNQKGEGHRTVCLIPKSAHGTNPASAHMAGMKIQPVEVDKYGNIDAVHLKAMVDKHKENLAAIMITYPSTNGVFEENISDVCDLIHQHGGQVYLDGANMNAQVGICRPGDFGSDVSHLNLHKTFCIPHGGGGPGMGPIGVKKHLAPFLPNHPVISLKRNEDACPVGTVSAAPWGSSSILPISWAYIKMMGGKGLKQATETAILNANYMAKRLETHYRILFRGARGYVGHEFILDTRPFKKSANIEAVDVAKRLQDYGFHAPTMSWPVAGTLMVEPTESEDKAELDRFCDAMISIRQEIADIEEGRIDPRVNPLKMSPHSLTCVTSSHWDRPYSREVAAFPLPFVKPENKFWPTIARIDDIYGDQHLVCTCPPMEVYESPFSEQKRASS
T1 sequence (P48728 29-403): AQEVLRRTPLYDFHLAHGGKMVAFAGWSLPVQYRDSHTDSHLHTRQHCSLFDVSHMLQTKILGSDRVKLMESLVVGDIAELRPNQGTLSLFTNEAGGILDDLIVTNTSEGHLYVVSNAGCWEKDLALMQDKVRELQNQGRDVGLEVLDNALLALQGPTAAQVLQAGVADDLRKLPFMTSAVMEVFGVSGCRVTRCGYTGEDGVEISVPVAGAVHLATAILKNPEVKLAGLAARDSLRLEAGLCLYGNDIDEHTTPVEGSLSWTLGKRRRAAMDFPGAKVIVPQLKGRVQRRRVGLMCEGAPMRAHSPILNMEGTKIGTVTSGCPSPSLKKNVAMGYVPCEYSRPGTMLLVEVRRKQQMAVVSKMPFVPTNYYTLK
T1 sequence (P23434 49-173): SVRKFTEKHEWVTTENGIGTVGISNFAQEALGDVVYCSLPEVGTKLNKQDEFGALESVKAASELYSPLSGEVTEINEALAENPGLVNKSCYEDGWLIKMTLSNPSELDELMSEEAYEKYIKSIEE
T1 sequence (P09622 36-509): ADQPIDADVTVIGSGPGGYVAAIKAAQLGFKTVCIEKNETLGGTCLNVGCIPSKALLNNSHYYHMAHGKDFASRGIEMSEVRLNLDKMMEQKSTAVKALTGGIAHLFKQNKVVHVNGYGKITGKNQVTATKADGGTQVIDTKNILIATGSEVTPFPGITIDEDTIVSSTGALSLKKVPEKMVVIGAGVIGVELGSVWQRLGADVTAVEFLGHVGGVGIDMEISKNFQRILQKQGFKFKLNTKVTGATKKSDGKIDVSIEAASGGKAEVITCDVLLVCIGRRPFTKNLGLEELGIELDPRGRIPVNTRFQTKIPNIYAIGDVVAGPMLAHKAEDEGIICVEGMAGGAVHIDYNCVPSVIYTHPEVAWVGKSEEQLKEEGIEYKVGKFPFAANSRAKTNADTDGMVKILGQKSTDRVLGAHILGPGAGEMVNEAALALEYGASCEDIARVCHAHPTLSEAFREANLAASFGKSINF

[2] = molecular target: T1, Glycine Cleavage System (GCS); details: brain mitochondria; read-out: Ki for GCS inhibition; cited from earlier work
[3] = tested on: hyperlocomotion induced by PCP or related drugs; details: PCP or related drugs as challenge stimulants, rodents; cited from earlier work
[4] = tested on: apomorphine-induced climbing behavior; assay: apomorphine-induced climbing test in mice; format: in vivo; details: for inhibition of apomorphine-induced climbing behavior: apomorphine 1.25 mg/kg subcutaneously
Description: Although the complex interaction of glycine with the neurotransmitter dopamine is not yet fully understood, the counterbalancing effects (symmetric bilateral changes) of glycine and dopamine, at least in part via GABAergic and cholinergic interneurons, in the central nervous system are well known for long ([…] et al., 1978; Giorguieff et al., 1979; […] et al., 1979; Schmidt and […] et al., 1998). Dopamine antagonists are the classic antischizophrenic drugs, and conventional animal models to test for antischizophrenic drugs with a dopaminergic mechanism of action use the induction of stereotyped behaviours such as climbing behavior in mice by the application of dopamine-agonistic drugs such as apomorphine (Protais et al., 1976; Puech et al., 1978). […] Therefore the model compound cysteamine at the doses indicated before are investigated in the climbing test in mice, too.

[5] = molecular target: T1, Glycine Cleavage System (GCS); details: Benavides 1983; cited from earlier work
negative symptoms = details: cited from earlier work
[6] = tested on: PCP-induced hyperlocomotion; assay: PCP-induced hyperlocomotion model; format: in vivo
Method: For the PCP-induced hyperlocomotion model we use a test apparatus consisting of a clear plexiglass box (45 cm×45 cm) equipped with two series of equally spaced infrared beam lights controlling X-Y axes and connected to a microcomputer. Measured automatically are the distance (way) traveled [m], and the time spent with locomotion or resting [sec] in intervals of 30 min over a total of 90 minutes following PCP administration. […] PCP at the indicated dose induces excessive locomotor behavior with an increase of about 200-250% measured by either locomotion distance or time compared to control animals.

[7] = tested on: PCP-induced disruption of PPI; assay: PCP-induced disruption of prepulse inhibition (PPI); format: in vivo, rats
Description: For the PCP-induced disruption of PPI we use a commercially available standard equipment (Coulbourn Instruments, USA) consisting of a sound attenuated test box equipped with a startle response measuring unit connected to a microcomputer; a white noise generator applies a constant level of back ground noise during the experiment. After a habituation period, a series of 70 combinations of prepulses (no prepulse or […] above back ground noise) and pulses (90 to 126 dB) is randomly applied to the rats. […] In control animals, presentation of the prepulse inhibits the startle response elicited by the pulse alone. PCP at the indicated doses induces a disruption of PPI by a maximum of about 70% compared to control animals. The doses indicated above are used for valproate and cysteamine, administered before the PCP challenge.

[8] = tested on: negative symptoms in schizophrenic patients; details: cited from earlier work
glycine levels = details: i.p. 250 mg/kg in 8 day old rats (Iwama 1997); cited from earlier work

**Q.** What does the source list for `CCCC(CCC)C(=O)O` [Valproate]?
**A.** Ki [1]: 590 µM; Ki [2]: 2000 µM

**Q.** Which “efficacy in the hyperlocomotion model” value [3] does the source give for `N[C@@H]1CCN(O)C1=O` [R-(+)-HA-966, R-(+)-3-amino-1-hydroxypyrrolid-2-one] here?
**A.** repeatedly demonstrated

**Q.** With `CCCCCCCCCCCCNC(=O)CN` [GDA, glycyldodecylamide] as the molecule, how does the “inhibition of apomorphine-induced climbing behavior” value [4] read?
**A.** inhibited

**Q.** And the “efficacy in the hyperlocomotion model” value [3]?
**A.** repeatedly demonstrated

**Q.** Which “GCS inhibition (in words)” value [5] does the source give for `C#CCN` [propargylamine] here?
**A.** weak inhibitors

**Q.** With `NCC(=O)O` [glycine] as the molecule, how does the side effects (negative symptoms; 0.4 g/kg and 0.8 g/kg glycine orally along with usual antipsychotic medication) read?
**A.** No changes

**Q.** What about the “amelioration of negative symptoms” value (negative symptoms; 0.4 g/kg glycine orally along with usual antipsychotic medication) of the same molecule?
**A.** 15%

**Q.** What about the “amelioration of negative symptoms” value (negative symptoms; 0.8 g/kg glycine orally along with usual antipsychotic medication) of the same molecule?
**A.** 30%

**Q.** And the “efficacy in the hyperlocomotion model” value [3]?
**A.** repeatedly demonstrated

**Q.** With `c1ccc(C2(N3CCCCC3)CCCCC2)cc1` [PCP, phencyclidine] as the molecule, how does the “increase of locomotor behavior (distance or time) compared to control animals” value ([6]; PCP 5 mg/kg intraperitoneally) read?
**A.** 200-250%

**Q.** What about the “disruption of PPI compared to control animals (maximum)” value ([7]; PCP 1-5 mg/kg subcutaneously) of the same molecule?
**A.** about 70%

**Q.** For `N[C@@H]1CONC1=O` [D-cycloserine], which “inhibition of apomorphine-induced climbing behavior” value [4] is on record?
**A.** inhibited

**Q.** And the negative symptoms ([8]; 50 mg/d along with effective dose of antipsychotics, double blind, placebo-controlled (Goff 1999))?
**A.** improvement in negative symptoms

**Q.** What about the “negative symptoms in schizophrenic patients” value ([8]; 50 mg/d, trial assessing 15 to 250 mg/d (Goff 1995)) of the same molecule?
**A.** reduced negative symptoms

**Q.** What about the “efficacy in the hyperlocomotion model” value [3] of the same molecule?
**A.** repeatedly demonstrated

**Q.** Which results are given for `NCCS` [Cysteamine]?
**A.** effect on PCP-induced hyperlocomotion ([6]; 100 to 500 mg/kg parenterally before PCP 5 mg/kg i.p., distance traveled and locomotion time over 90 min): reduction of PCP-induced hyperlocomotion; also recorded: reduce PCP-induced hyperlocomotion; effect on PCP-induced disruption of PPI ([7]; 100 to 500 mg/kg parenterally before PCP 1-5 mg/kg s.c., different prepulse/pulse combinations): reverse PCP-induced disruption of PPI; ED50 ([4]; Mus musculus, given prior to the apomorphine challenge, read-out: ED50 (dose which inhibits apomorphine-induced climbing by 50%)): 500 mg/kg; glycine in the cortex, % of control animals (glycine levels): 360%

**Q.** With `N#CCN` [aminoacetonitrile] as the molecule, how does the “GCS inhibition (in words)” value [5] read?
**A.** weak inhibitors
